“Also recorded” adds a separate entry of the source.
Legend:
[1] = test system: S. glaseri males; assay: Retention assay, S. glaseri males; assay type: in vivo
Description: (§1) OP50 E. coli was grown on a standard 5 cm agar plate (made with standard Nematode Growth Medium). The bacterial lawn was 16 mm in diameter and was grown overnight at 20° C. before being used in trials. Two 4 mm spots (0.6 μL) were placed on opposite sides of the bacterial lawn (using a transparent template to guide spot placement), and several minutes elapsed for the liquid to settle in before placing nematodes down on the assay. Recording began immediately upon worm placement. […]
(§2) Nematodes were isolated by gender at the L4 stage the day before being used in trials as developed adults. […] Trials were recorded for 20 minutes, and frames were collected for analysis at 1 frame per second. […]
(§3) A video camera attached to the microscope produced a digital video stream, which was then analyzed. The ratio of the time the average worm spent in each region of interest was calculated for every trial. […] Thus worm pixels were counted instead of whole worms, allowing fractions of a worm in the region of interest to be taken into account. It also eliminated the need for a shape-based worm identification algorithm, and allowed each frame to be analyzed independently. […] Thus, the ratio of worm-pixels to all pixels inside the region of interest can be calculated to produce the worm-occupancy ratio. […]

[2] = test system: C. elegans males; assay: Retention assay, C. elegans males; assay type: in vivo
Description: as §1, §2, §3

[3] = test system: P. redivivus males and females; assay: Retention assay, P. redivivus; assay type: in vivo
Description: (§4) OP50 E. coli was grown on a standard 5 cm agar plate (made with standard Nematode Growth Medium). The bacterial lawn was 16 mm in diameter and was grown overnight at 20° C. before being used in trials. Two 4 mm spots (0.6 μL) were placed on opposite sides of the bacterial lawn (using a transparent template to guide spot placement), and several minutes elapsed for the liquid to settle in before placing nematodes down on the assay. Recording began immediately upon worm placement. 0.6 μL of the control was placed on one side of the lawn, and 0.6 μL of the experimental cue was placed on the other side of the lawn, changing the location of the cue throughout trials between left/right and top/bottom to avoid bias.
Nematodes were isolated by gender at the L4 stage the day before being used in trials as developed adults. Worms were evenly divided and placed at two points equidistant from the foci of the scoring region. Trials were recorded for 20 minutes, and frames were collected for analysis at 1 frame per second. Results were averaged from at least three different trials. For every nematode species in this study, a different total number of worms (using water in both scoring regions) was tested to determine the minimum number of worms necessary for consistent unbiased results over a 20 minute trial. The total number of worms used in the multiple species assays depended on that species' optimal parameters. […]
as §3

[4] = test system: several of the tested nematode species; assay: Retention assay, several nematode species; assay type: in vivo; conditions: 1 nM, 1 μM and 1 mM tested
Description: as §4
Nematodes were isolated by gender at the L4 stage the day before being used in trials as developed adults. Worms were evenly divided and placed at two points equidistant from the foci of the scoring region. Trials were recorded for 20 minutes, and frames were collected for analysis at 1 frame per second. Results were averaged from at least three different trials. For every nematode species in this study, a different total number of worms (using water in both scoring regions) was tested to determine the minimum number of worms necessary for consistent unbiased results over a 20 minute trial. The total number of worms used in the multiple species assays depended on that species' optimal parameters. 10 worms were used for P. redivivus males and females, 20 worms were used for C. elegans males and O. dolichuridae males, and 14 worms were used for S. glaseri males. The Automated Software was used to compare worm occupancy in each scoring region over time, and the Chemotaxis Index (Bargmann et al., Cell 74:515-27 (1993), which is hereby incorporated by reference in its entirety) was adapted to score preference or avoidance to each ascaroside.
A video camera attached to the microscope produced a digital video stream, which was then analyzed. The ratio of the time the average worm spent in each region of interest was calculated for every trial. For ease of implementation, all worms in a single experiment were assumed to be roughly the same size. Thus worm pixels were counted instead of whole worms, allowing fractions of a worm in the region of interest to be taken into account. It also eliminated the need for a shape-based worm identification algorithm, and allowed each frame to be analyzed independently. A band-pass filter was applied to each frame to eliminate the effect of uneven lighting and also accentuate the worms against the background. The worm was then identified after thresholding the filtered image. Throughout each experiment, the locations and sizes of the regions of interest were known. Through the filtering described above, it is known which pixels are occupied by worms and which ones are not. Thus, the ratio of worm-pixels to all pixels inside the region of interest can be calculated to produce the worm-occupancy ratio. This calculation was done for every frame, giving a plot output of worm-occupancy ratio vs. time for each region.

[5] = test system: P. pacificus; assay: Dauer formation assay; assay type: in vivo, Pristionchus pacificus; conditions: even at very high concentrations (20 μM)
Description: Dauer formation assays were performed as described in Ogawa et al., Curr. Biol. 19:67-71 (2009), which is hereby incorporated by reference in its entirety, using heat- or kanamycin-killed E. coli OP50. Synthetic compounds were dissolved in ethanol (0.5 mM, stock solution) and combined with water to make a […] and subsequently added to 3 mL NGM-agar without peptone ([…], 0.3, 0.1 μM final concentrations).

[6] = test system: males; assay: Bioassay of HPLC-purified peak; assay type: in vivo; conditions: purified peak with retention time of 9.7 minutes
Description: A Thermo Finnigan LCQ Deca XP Max was used with electrospray ionization in positive ion mode in the 50-1000 AMU range. The Thermo Separation spectra HPLC system consisted of a P4000 quaternary pump, an AS 3000 auto sampler, and a UV 6000 diode array detector. The solvents were water with (a) 0.1% formic acid and (b) 90% acetonitrile-10% water with 10 mM ammonium formate. The column temperature was maintained at 60° C. and a solvent flow of 1.0 ml/min. The reversed phase column (PLRP-S Polymeric reversed phase column, 250×4.6 mmid, Varian Inc.) was eluted with a solvent composition starting with 90:10 (a,b) for 2 minutes, followed by a gradient to 5:95 in 20 minutes and an additional 5 minutes at 5:95. Ultraviolet absorption was monitored at 190 and 400 nm. Solvent flow between the ultraviolet detector and mass spectroscopy electrospray interface split 9:1 with a low-volume micro needle P450 splitter valve (Upchurch Scientific, Oak Harbor, Wash.), making it possible to obtain spectra of eluted compounds and simultaneously collect 90% of the injected material for bioassay. […] This was confirmed to be ascr#1 using NMR analysis.

[7] = test system: P. pacificus strain RSB020; assay: Mouth-form dimorphism assay; assay type: in vivo, Pristionchus pacificus; conditions: high concentrations
[8] = test system: C. elegans; conditions: cited from earlier work
[9] = test system: C. elegans; assay: Aggregation assay; assay type: in vivo
Description: Aggregation behavior of worms was measured using assays reported in de Bono & Bargmann, Cell 94:679-89 (1998), which is hereby incorporated by reference in its entirety. Aggregation assays were conducted on standard NGM plates. Plates containing indole ascarosides were made by adding the indole ascaroside stock solution to the NGM media before they were poured onto the plates. These plates were dried at room temperature for 2 to 3 days. Control plates were treated similarly, except that ethanol solutions instead of icas solutions were added to the plates, corresponding to the amount of ethanol introduced via the icas solutions. Final ethanol concentrations of the plates were below 0.1% for all conditions. After drying, both control plates and plates containing indole ascarosides were seeded with 150 μl of an overnight culture of E. coli OP50 using a micropipette, and were allowed to dry for 2 days at room temperature. For “low worm density” experiments, 20 worms were placed onto the lawn and left at 20° C. for 3 hours. For “high worm density” experiments, approximately 120 worms were placed onto the bacterial lawn and left at 20° C. for 3 hours. Aggregation behavior was quantified as the number of animals that were in touch with two or more animals at greater than 50% of their body length.

[10] = test system: C. elegans hermaphrodites and males; assay: Spot attraction assay; assay type: in vivo
Description: The spot attraction assays were conducted according to a previously reported method (Pungaliya et al., PNAS 106:7708-13 (2009); Srinivasan et al., Nature 454:1115-18 (2008), which are hereby incorporated by reference in their entirety). For both C. elegans hermaphrodites and males, 50-60 worms were harvested daily at the fourth larval stage (L4) and stored segregatedly by sex at 20° C. overnight, to be used as young adults the following day. For the competition experiments, two conditions were used: 120 nM ascr#3 and 10 nM icas#3 (Condition 1), or 12 μM ascr#3 and 1 μM icas#3 (Condition 2) in water containing 10% ethanol. Aliquots were stored at −20° C. in 20 μL tubes. 10% ethanol in water was used as control.
Attraction assays with hbas#3 were conducted as previously reported (Srinivasan et al., Nature 454:1115-18 (2008); Pungaliya et al., Proc. Natl. Acad. Sci. U.S.A. 106:7708-13 (2009), which are hereby incorporated by reference in their entirety). For the attraction assays, 50-60 hermaphrodite worms were harvested daily at the early fourth larval stage (L4) and stored at 20° C. overnight to be used as young adults the following day. Hbas#3 was dissolved in water containing 10% ethanol. Aliquots were stored at −20° C. in 20 μL tubes. 10% ethanol in water was used as control.

[11] = test system: C. elegans; conditions: Srinivasan et al. 2012; cited from earlier work
[12] = Butcher et al., Org. Lett. 2009

CC1O[C@@H](O[C@H](C)CCCCCCC(=O)O)C(O)C[C@H]1O (some centres unmarked) [ascr#10]
concentration of conditioned regions preferred (activity threshold) [1]: 1 mM | concentration of conditioned regions preferred (activity threshold) [2]: 1 µM | concentration of conditioned regions preferred (activity threshold) ([3]; males): 1 mM | preference for areas conditioned by the ascaroside [4]: preferred

C[C@H](CCCCC(=O)O)O[C@@H]1O[C@@H](C)[C@H](O)C[C@H]1O [ascr#1, reference compound]
dauer induction [5]: does not induce dauer formation; also recorded: no dauer-inducing activity | activity in the bioassay [6]: active to males | preference for areas conditioned by the ascaroside [4]: preferred | induction of the eurystomatous mouth form [7]: weaker induction of the eurystomatous mouth form

C[C@H](CCC(=O)O)O[C@@H]1O[C@@H](C)[C@H](OC(=O)c2c[nH]c3ccccc23)C[C@H]1O [icas#9, reference compound]
dauer-inducing activity [8, 12]: moderate dauer-inducing activity | shape of dauer response curve [8, 12]: bell-shaped response curve | promotion of dauer entry ([8]; shown previously): individually promote dauer entry | concentrations at which active as hermaphrodite attractants and aggregation signals ([9]; in vivo): femtomolar to picomolar | aggregation of hermaphrodites ([9]; low worm density, solitary and social hermaphrodites): increased aggregation of both solitary and social hermaphrodites | attraction in the spot attraction assay ([10]; 1 pmol, N2 hermaphrodites and him-5 males): attractive to both C. elegans sexes | attraction in the spot attraction assay ([10]; high concentrations, males and hermaphrodites): attracted both males and hermaphrodites | attraction of hermaphrodites ([10]; low concentrations, N2 hermaphrodites): strongly attracted | attraction of males ([10]; low concentrations, males): not attracted; also recorded: not males | response of P. redivivus females ([3]; females): repeled | response of P. redivivus males ([3]; males): elicited no response | aggregation in C. elegans [11]: aggregating stimulant
